This note sets out measurements from ChEMBL document CHEMBL1201862, “PubChem BioAssay data set” (2004).

The structures appear in SMILES notation.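 Interpolation was linear, between the two tested concentrations surrounding the appropriate level; five concentrations were tested over 48 hours in 96-well plates. Here, GI50 denotes the concentration required for 50% inhibition of growth.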 Active and inactive are the calls of the source. No stated cut-off is given here; in the data, active = GI50 up to about 1.1 µM and inactive = higher. Bounds are passed on as bounds.

Among the test systems are Malme-3M; NCI-H226; HCT-15; TK-10; M14; NCI-H23; HCC 2998; UACC-257; UACC-62; RXF 393; HL-60; DMS-273; A549; HOP-92; BT-549; DU-145; MCF7; SR; NCI/ADR-RES; MDA-N.
Holding throughout (experiment): inhibition of tumour cell growth, NCI panel, 48 h

`CC(C)C1CC2C(=O)N(c3ccccc3)C(=O)C2c2[nH]c3ccccc3c21` (configuration not stated): the GI50 with Malme-3M was 25.8 µM (inactive); in the test with NCI-H226 it was 16.2 µM (inactive); with HCT-15, 14.6 µM; in the test on TK-10 it was 23.1 µM (inactive); in the test with M14 it was 38.5 µM (inactive); with NCI-H23 it was 19.5 µM (inactive). Moreover, the GI50 is > 100 µM (inactive) with HCC 2998; 34.6 µM (inactive) in the test with UACC-257; 24.6 µM (inactive) in the test with UACC-62; 21.3 µM (inactive) in the test on RXF 393; 7.45 µM (inactive) in the test on HL-60; 9.84 µM (inactive) in the test on DMS-273. Besides, the GI50 with A549 was 14.4 µM (inactive).
For `COc1c(Br)cc(Br)c(OC)c1-c1ccc[nH]1`, the GI50 in the test on NCI-H226 was 43.9 µM (inactive); in the test on HCT-15 it was 55.8 µM; in the test with TK-10 it was 5.83 µM (inactive); with M14 it was 75.7 µM (inactive); in the test with HOP-92 it was 37.3 µM (inactive); in the test with NCI-H23 it was > 100 µM (inactive). For the same molecule, the GI50 in the test on UACC-257 is > 100 µM (inactive); in the test on UACC-62, 56.1 µM (inactive); with HL-60, 31.6 µM (inactive); with DMS-273, 87.9 µM (inactive); in the test with A549, > 100 µM (inactive).
As for `O=c1[nH]c(=O)n(C/C=C/CO)nc1Br`, the GI50 in the test with BT-549 is > 100 µM (inactive); in the test with Malme-3M, > 100 µM (inactive); with NCI-H226, > 100 µM (inactive); with DU-145, > 100 µM (inactive); with MCF7, > 100 µM (inactive); in the test with HCT-15 it was above 100 µM. For the same molecule, the GI50 in the test on SR, in the test on TK-10, in the test with M14, in the test with HOP-92, in the test on NCI/ADR-RES and in the test with NCI-H23 was > 100 µM (inactive) in each case. Further, the GI50 in the test with HCC 2998, with UACC-257, in the test with UACC-62, in the test on MDA-N, in the test on RXF 393 and in the test on HL-60 was > 100 µM (inactive) in each case. Moreover, the GI50 in the test on A549 was > 100 µM (inactive).
`COc1ccc2c(c1OC(C)=O)C1=CC(=O)CCC13CCNC3C2` (configuration not stated): the GI50 was > 100 µM (inactive) in the test on BT-549; > 100 µM (inactive) with Malme-3M; > 100 µM (inactive) with NCI-H226; > 100 µM (inactive) with DU-145; > 100 µM (inactive) with MCF7; above 100 µM with HCT-15. Also, the GI50 in the test on SR, in the test on TK-10, in the test with M14, with HOP-92, in the test on NCI/ADR-RES and with NCI-H23 was > 100 µM (inactive) throughout. The GI50 with HCC 2998, in the test with UACC-257, in the test on UACC-62, in the test with MDA-N, in the test with RXF 393 and in the test with HL-60 was > 100 µM (inactive) in each case. Also, in the test on A549, the GI50 was > 100 µM (inactive).
Take `Cc1cc(CN(Cc2ccccc2)Cc2nc3ccccc3[nH]2)c(O)c(CN(Cc2nc3ccccc3[nH]2)Cc2nc3ccccc3[nH]2)c1`: the GI50 with BT-549 is 4.76 µM (inactive); in the test with Malme-3M it was 24.9 µM (inactive); in the test with NCI-H226, 3.42 µM (inactive); in the test on DU-145, 23.4 µM (inactive); with MCF7 it was 2.66 µM (inactive); in the test on HCT-15 it was 2.81 µM. The GI50 with SR was 2.6 µM (inactive); with TK-10 it was 4.71 µM (inactive); in the test with M14 it was 5.94 µM (inactive); in the test on HOP-92 it was 3.48 µM (inactive); in the test with NCI/ADR-RES it was 5.06 µM (inactive); in the test with NCI-H23, 6.93 µM (inactive). Besides, the GI50 was 6.43 µM (inactive) with HCC 2998; 4.86 µM (inactive) in the test with UACC-257; 3.56 µM (inactive) in the test with UACC-62; 6.43 µM (inactive) with MDA-N; 13.5 µM (inactive) in the test on RXF 393; 2.16 µM (inactive) in the test with HL-60. Besides, in the test with A549, the GI50 is 8.79 µM (inactive).
As for `CCOC1=C(c2ccccc2)N2CCCCC2O1` (configuration not stated), the GI50 in the test on BT-549 was 5.33 µM (inactive); in the test on Malme-3M, 5.7 µM (inactive); in the test with NCI-H226 it was 3.42 µM (inactive); in the test with DU-145, 4.19 µM (inactive); in the test with MCF7, 3.76 µM (inactive); in the test with HCT-15, 29 µM. In addition, the GI50 was 3.71 µM (inactive) with SR; 5.32 µM (inactive) with TK-10; 3.46 µM (inactive) with M14; 2.21 µM (inactive) in the test with HOP-92; 23.7 µM (inactive) with NCI/ADR-RES; 3.29 µM (inactive) with NCI-H23. Moreover, the GI50 in the test on HCC 2998 was 3.12 µM (inactive); in the test on UACC-257 it was 3.46 µM (inactive); with UACC-62, 3.48 µM (inactive); in the test on MDA-N, 4.03 µM (inactive); with RXF 393 it was 7.89 µM (inactive); in the test on HL-60, 1.5 µM (inactive). The GI50 with A549 is 5.57 µM (inactive).
In the case of `COc1cccc(CCN2CCN(CCCc3ccccc3)CC2)c1`, the GI50 is 40.1 µM (inactive) with BT-549; 55.5 µM (inactive) in the test on Malme-3M; 71 µM (inactive) with NCI-H226; > 100 µM (inactive) in the test on DU-145; 44.1 µM (inactive) in the test with MCF7; 31.7 µM in the test on HCT-15. Also, the GI50 was 30.5 µM (inactive) with SR; > 100 µM (inactive) with TK-10; 21.2 µM (inactive) with M14; 8.41 µM (inactive) with HOP-92; > 100 µM (inactive) in the test with NCI/ADR-RES; 53 µM (inactive) with NCI-H23. In addition, the GI50 was 58.3 µM (inactive) in the test with HCC 2998; > 100 µM (inactive) in the test on UACC-257; > 100 µM (inactive) in the test with UACC-62; > 100 µM (inactive) in the test with MDA-N; 71 µM (inactive) in the test with RXF 393; 61.4 µM (inactive) in the test on HL-60. The GI50 with A549 is 94.6 µM (inactive).
Regarding `COC1=C(OC)C23CCc4ccc(OC)c(O)c4C2(CCN3)CC1=O` (configuration not stated), the GI50 with BT-549 is > 100 µM (inactive); in the test on Malme-3M, > 100 µM (inactive); in the test on NCI-H226, > 100 µM (inactive); in the test on DU-145 it was > 100 µM (inactive); in the test with MCF7, > 100 µM (inactive); in the test on HCT-15, above 100 µM. In addition, the GI50 in the test on SR, with TK-10, with M14, in the test with HOP-92, with NCI/ADR-RES and in the test on NCI-H23 was > 100 µM (inactive) in each case. The GI50 with HCC 2998, in the test on UACC-257, with UACC-62, in the test on MDA-N, in the test with RXF 393 and with HL-60 was > 100 µM (inactive) throughout. The GI50 in the test on A549 is > 100 µM (inactive).
For the molecule `CCSC(SCC)c1cc2c(cc1Br)OCO2`, the GI50 in the test with NCI-H226 was 24.2 µM (inactive); with HCT-15, 9.64 µM; in the test on TK-10, 44.7 µM (inactive); in the test with M14, 16.9 µM (inactive); with HOP-92, 17.8 µM (inactive); with NCI-H23 it was 26.7 µM (inactive). Moreover, the GI50 in the test with HCC 2998 was 17.8 µM (inactive); with UACC-62, 28.5 µM (inactive); with RXF 393, 26.7 µM (inactive); in the test on HL-60, 10.1 µM (inactive); with DMS-273 it was 3.7 µM (inactive); with A549, 28.6 µM (inactive).
Turning to `NC(=O)c1ncn(C2OC(CO)C(O)C2O)c1NC=O` (configuration not stated), the GI50 in the test with BT-549 is > 100 µM (inactive); with Malme-3M, > 100 µM (inactive); with NCI-H226, > 100 µM (inactive); with DU-145, > 100 µM (inactive); with MCF7, > 100 µM (inactive); in the test with HCT-15 it was above 100 µM. Further, the GI50 with SR, in the test on TK-10, in the test on M14, with HOP-92, in the test on NCI/ADR-RES and with NCI-H23 was > 100 µM (inactive) in each case. Further, the GI50 in the test with HCC 2998, in the test with UACC-257, in the test with UACC-62, in the test with MDA-N, in the test on RXF 393 and in the test on HL-60 was > 100 µM (inactive) in each case. Further, the GI50 in the test with A549 was > 100 µM (inactive).
With `C[N+](C)(C)C(Cc1c[nH]c(=S)[nH]1)C(=O)O` (configuration not stated), the GI50 in the test on BT-549 is > 100 µM (inactive); in the test with Malme-3M, > 100 µM (inactive); in the test on NCI-H226, > 100 µM (inactive); in the test with DU-145, > 100 µM (inactive); with MCF7, > 100 µM (inactive); in the test with HCT-15 it was above 100 µM. Moreover, the GI50 in the test with SR, in the test with TK-10, with M14, in the test on HOP-92, in the test with NCI/ADR-RES and in the test on NCI-H23 was > 100 µM (inactive) throughout. Besides, the GI50 in the test on HCC 2998, in the test on UACC-257, in the test with UACC-62, with MDA-N, in the test with RXF 393 and in the test with HL-60 was > 100 µM (inactive) in each case. For the same molecule, in the test with A549, the GI50 was > 100 µM (inactive).
With `O=[N+]([O-])c1ccc(C(Nc2ccccc2)c2ccc3cccnc3c2O)cc1` (configuration not stated), the GI50 in the test with BT-549 is 10.3 µM (inactive); with Malme-3M, 14.7 µM (inactive); in the test on NCI-H226, 3.78 µM (inactive); with DU-145 it was 9.14 µM (inactive); with MCF7, 4.83 µM (inactive); with HCT-15, 4.26 µM. The GI50 is 0.474 µM (active) with SR; 8.49 µM (inactive) with TK-10; 9.4 µM (inactive) in the test with M14; 7.87 µM (inactive) in the test with HOP-92; 3.67 µM (inactive) in the test on NCI/ADR-RES; 11.5 µM (inactive) in the test on NCI-H23. Also, the GI50 in the test on HCC 2998 was 12.9 µM (inactive); in the test on UACC-257, 13.8 µM (inactive); in the test with UACC-62 it was 12.9 µM (inactive); with MDA-N it was 23.7 µM (inactive); in the test with RXF 393, 5.15 µM (inactive); with HL-60 it was 3.37 µM (inactive). Moreover, in the test on A549, the GI50 was 8.04 µM (inactive).
